Data as given in patent publication US20090221530A1, “Relaxase Modulators and Methods of Using Same” (priority 2005, published 2009).
Like-named read-outs stand apart in the source and are kept apart here.

What was measured:
F+ or F− cells = assay: 24 hr. MIC bounds (turbid/clear wells); format: cell-based, E. coli; details: 8x serial dilutions, bounds identical for F+ or F− cells; for 24 hr. MIC bounds, upper: clear wells after 24 hr. incubation; for 24 hr. MIC bounds, lower: turbid wells after 24 hr. incubation
F− recipient cells = assay: microbe, parasite or virus in culture; format: cell-based, E. coli; details: for Selectivities by EC50, Donors: listed as vs. F− recipient cells relative to donors; for Selectivities by EC50, Transconj.: listed as vs. F− recipient cells relative to transconjugants; for 100 minute EC50 / EC50: vs. F− recipient cells; for 100 minute EC50: mass concentration; for EC50: read-out: 100 minute EC50
Source text: (§1) A 96-well fluorescence-based assay using oxygen biosensor plates (Becton Dickinson, Franklin Lakes, N.J., U.S.A.) was employed to monitor bacterial cell survival. FIG. 7 schematically illustrates the assay mechanism of action. […] In the absence of viable bacteria, however, no fluorescence emission is detected because the fluorophore is quenched by free oxygen. The assay can further be utilized to measure conjugative DNA transfer.
(§2) Relaxase-dependent cell survival was examined by placing cultures of F+/TraI+ E. coli cells (with antibiotic resistance, e.g., Ab^r1, on a non-conjugative plasmid) within wells and exposing them to putative inhibitory compounds. […] Negative controls for this assay can be F− (Ab^r2) cells and F+ cells (Ab^r1) containing either no F plasmid relaxase (TraI) gene, or a TraI harboring catalytic tyrosine to phenylalanine mutations; in both cases, these control cells should be resistant to relaxase-dependent cell toxicity. […] Fluorescence can be measured using a PHERASTAR™ fluorescence plate reader (BMG LABTECH, Offenburg, Germany) over 8 hours time.

transconjugants = assay: microbe, parasite or virus in culture; format: cell-based, E. coli; details: for Selectivities by EC50, Donors: listed as vs. transconjugants relative to donors; for 100 minute EC50 / EC50: vs. transconjugants; for 100 minute EC50: mass concentration; for EC50: read-out: 100 minute EC50
Source text: as §1, §2

F+ donor cells = assay: microbe, parasite or virus in culture; format: cell-based, E. coli; details: for Selectivities by EC50, Transconj.: listed as vs. F+ donor cells relative to transconjugants; for 100 minute EC50 / EC50: vs. F+ donor cells; for 100 minute EC50: mass concentration; for EC50: read-out: 100 minute EC50
Source text: as §1, §2

F plasmid TraI N300 = molecular target: T1, F plasmid TraI N300 (Escherichia coli, UniProt P14565); assay: Fluorescence kinetic assay of oriT DNA cleavage and crossover by TraI N300; format: biochemical, E. coli; details: data not shown
T1 construct: An amino-terminal 300 residue F plasmid TraI construct; made in house; host or cells: E. coli BL21 (DE3)/pLysS or HMS174 (DE3)/pLysS, vector pTYB2
Experimental: Reaction Buffer: 6.42 mM MgCl2, 20.5% glycerol, 153.9 mM NaCl, and 51.3 mM Tris-HCl pH 7.5. Streptavidin Wash Buffer (Tris buffered saline, TBS/Tween): and 150 mM NaCl, 25 mM Tris-HCl pH 7.5, and 0.05% Tween-20. Stopping Buffer: 1.2% sodium-dodecyl sulfate (SDS), and 300 mM EDTA pH 10. TE Buffer: 1 mM EDTA, and 10 mM Tris-HCl pH 7.4. Fluorescence Buffer: 80% glycerol, 200 mM Tris-HCl pH 8.0. Short-term N300 stock (for storage at −20° C.): 50% Reaction Buffer, 49.8% glycerol, 0.2% long-term protein solution (84.6 nM final N300 concentration). All 5× stocks except Probe stocks were diluted in Reaction Buffer. 5× Enzyme Stock: 8.4 mL short-term N300 stock diluted to 2.02 nM N300. 5× Inhibitor Stocks: imidodiphosphate (pNp) at 0-50 nM in Reaction Buffer. 5× Substrate Stocks: oligonucleotides b29 and PCb31eco diluted to […] each, by 3-fold serial dilutions. 5× Probe Stocks: […] (1.2-fold molar excess) oligonucleotide downF in TE Buffer. All reactions and procedures involving downF were assembled or performed in darkened conditions. Solutions and microtiter plates containing downF were kept in foil-lined containers at all times to prevent photobleaching.
Two oriT derived oligonucleotides, b29 and PCb31eco, were designed for binding and cleavage by TraI based on past studies (see Oligonucleotides section herein; FIG. 4A). The overall method is modified from those described previously for the study of TraI and R388TrwC (Byrd et al., 2002; Grandoso et al., 2000; Matson and Morton, 1991). Reactions were assembled from 16 μL of 5× Substrate Stock, 16 μL of 5× Inhibitor Stock, and 32 μL of Reaction Buffer. 80 μL reactions were initiated with 16 μL of 5× Enzyme Stock and raised to 37° C. 10 μL samples were removed at eight time points (optimized to define timecourses) and stopped in 10 μL of Stopping Buffer at room temperature. Stopped reactions were placed on a 100° C. heat block for one minute, spiked with 2 μL of 5× Probe Stock while still hot, and incubated at 37° C. for 10 minutes (see Kinetic Assay Formulations for probe handling).
Samples were diluted to […] with Streptavidin Wash Buffer and transferred to Biobind Assembly streptavidin-coated microtiter plates (Thermo Electron Corporation, Waltham, Mass., U.S.A.) and incubated at 37° C. for 45 minutes. Plates were washed with at least 5-fold excess Streptavidin Wash Buffer (in an inverted position to prevent excess biotinylated species from transferring between wells). Wells were filled with 65 μL of Fluorescence Buffer for optimum 6-FAM™ fluorescence. Plates were read in a FLUOSTAR OPTIMA™ (BMG Labtech, Offenburg, Germany) with a 490 nm excitation and 520 nm emission filters (10 nm bandpass) with the gain optimized for maximum signal. The timecourses thus collected were designated Cleavage Courses. Plates were removed and irradiated with 306 nm ultraviolet radiation for 10 minutes to cleave the PC biotin linker. They were then washed inverted with at least 5-fold excess Streptavidin Wash Buffer, filled with 65 μL of Fluorescence Buffer, and again read as above. These timecourses were designated Cleavage+Crossover Courses (FIG. 4A).
All timecourses were fitted by nonlinear regression with un-weighted least-squares methods using SIGMAPLOT™ 8.0 (SYSTAT Software, Inc., Point Richmond, Calif., U.S.A.) (also used for graph construction). Timecourses with blanked signals in arbitrary fluorescence units were scaled by curve mean in groups of at least four replicates, culled for outliers, and averaged by time point. On average, one replicate time point was culled from each group of four used. The averaged curves were fitted to a simple, three-parameter exponential decay equation (Equation 1), time versus signal, and converted into units of concentration.
where t is time in seconds, y0+a is the initial signal, b is a constant that determines the shape of the curve. […]

T1 sequence (P14565 1-306): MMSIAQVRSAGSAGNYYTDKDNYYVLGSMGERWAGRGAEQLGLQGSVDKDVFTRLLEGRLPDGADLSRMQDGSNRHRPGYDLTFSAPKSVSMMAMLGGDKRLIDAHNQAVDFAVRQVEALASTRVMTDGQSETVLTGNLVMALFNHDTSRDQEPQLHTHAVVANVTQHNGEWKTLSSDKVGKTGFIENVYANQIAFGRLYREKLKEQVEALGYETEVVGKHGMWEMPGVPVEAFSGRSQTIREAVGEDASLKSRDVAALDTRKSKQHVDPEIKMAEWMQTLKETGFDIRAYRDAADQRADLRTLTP

**Q.** How did the “24 hr. MIC bounds, upper” value (F+ or F− cells) turn out when `COP(=O)(OC)c1ccccc1P(=O)(OC)OC` [1,2-Bis(dimethoxyphosphoryl)benzene, 1,2-bis(dimethoxyphosphoryl)benzene] was run?
**A.** 100 mM

**Q.** What about the “24 hr. MIC bounds, lower” value (F+ or F− cells) of the same molecule?
**A.** 12.5 mM

**Q.** What about the “Selectivities by EC50, Donors” value (F− recipient cells; first EC50 block) of the same molecule?
**A.** 3.3E+05

**Q.** And the “Selectivities by EC50, Transconj.” value (F− recipient cells; first EC50 block)?
**A.** 1.6E+03

**Q.** What about the “100 minute EC50” value (F− recipient cells; first EC50 block) of the same molecule?
**A.** 7000 µg/mL

**Q.** And the EC50 (F− recipient cells; first EC50 block)?
**A.** 22 mM

**Q.** What about the “100 minute EC50” value (F− recipient cells; second block) of the same molecule?
**A.** >29000 µg/mL

**Q.** And the EC50 (F− recipient cells; second block)?
**A.** > 100 mM

**Q.** What about the “Selectivities by EC50, Donors” value (transconjugants; first EC50 block) of the same molecule?
**A.** 2.1E+02

**Q.** What about the “100 minute EC50” value (transconjugants; first EC50 block) of the same molecule?
**A.** 4 µg/mL

**Q.** What about the EC50 (transconjugants; first EC50 block) of the same molecule?
**A.** 0.014 ± 0.0003 mM

**Q.** And the “100 minute EC50” value (transconjugants; second block)?
**A.** >29000 µg/mL

**Q.** And the EC50 (transconjugants; second block)?
**A.** > 100 mM

**Q.** And the “Selectivities by EC50, Transconj.” value (F+ donor cells; first EC50 block)?
**A.** 4.8E−03

**Q.** What about the “100 minute EC50” value (F+ donor cells; first EC50 block) of the same molecule?
**A.** 0.02 µg/mL

**Q.** What about the EC50 (F+ donor cells; first EC50 block) of the same molecule?
**A.** 0.068 µM

**Q.** And the “100 minute EC50” value (F+ donor cells; second block)?
**A.** >29000 µg/mL

**Q.** What about the EC50 (F+ donor cells; second block) of the same molecule?
**A.** > 100000 µM

**Q.** `O=P(O)(O)OP(=O)(O)O` [Pyrophosphate, reference compound] was tested. Which “effect on enzyme activity” value (F plasmid TraI N300) did it give?
**A.** no effect

**Q.** With `O=P(O)(O)CNCP(=O)(O)O` [Iminobis(methylphosphonate)] as the molecule, how does the “24 hr. MIC bounds, upper” value (F+ or F− cells) read?
**A.** 10 mM

**Q.** What about the “24 hr. MIC bounds, lower” value (F+ or F− cells) of the same molecule?
**A.** 1.25 mM

**Q.** What about the “Selectivities by EC50, Donors” value (F− recipient cells; first EC50 block) of the same molecule?
**A.** 4.8E+05

**Q.** What about the “Selectivities by EC50, Transconj.” value (F− recipient cells; first EC50 block) of the same molecule?
**A.** 4.0E+03

**Q.** And the “100 minute EC50” value (F− recipient cells; first EC50 block)?
**A.** 1000 µg/mL

**Q.** And the EC50 (F− recipient cells; first EC50 block)?
**A.** 5 ± 3.3 mM

**Q.** What about the “100 minute EC50” value (F− recipient cells; second block) of the same molecule?
**A.** >2000 µg/mL

**Q.** What about the EC50 (F− recipient cells; second block) of the same molecule?
**A.** > 10 mM

**Q.** And the “Selectivities by EC50, Donors” value (transconjugants; first EC50 block)?
**A.** 1.2E+02

**Q.** What about the “100 minute EC50” value (transconjugants; first EC50 block) of the same molecule?
**A.** 0.253 µg/mL

**Q.** What about the EC50 (transconjugants; first EC50 block) of the same molecule?
**A.** 0.001 mM

**Q.** What about the “100 minute EC50” value (transconjugants; second block) of the same molecule?
**A.** 2000 µg/mL

**Q.** What about the EC50 (transconjugants; second block) of the same molecule?
**A.** 8 ± 0.5 mM

**Q.** And the “Selectivities by EC50, Transconj.” value (F+ donor cells; first EC50 block)?
**A.** 8.4E−03

**Q.** What about the “100 minute EC50” value (F+ donor cells; first EC50 block) of the same molecule?
**A.** 0.002 µg/mL

**Q.** And the EC50 (F+ donor cells; first EC50 block)?
**A.** 0.01 µM

**Q.** What about the “100 minute EC50” value (F+ donor cells; second block) of the same molecule?
**A.** >2000 µg/mL

**Q.** What about the EC50 (F+ donor cells; second block) of the same molecule?
**A.** > 10000 µM
